# Source: ChEMBL document CHEMBL1201862, “PubChem BioAssay data set” (2004)
#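 48-hour exposure; five concentrations; linearly interpolated endpoints. GI50 is the concentration that inhibits growth by half.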 Activity calls are given as the source filed them. No stated cut-off is given here; in the data, active = GI50 up to about 1.1 µM and inactive = higher.
# How the values were obtained:
# Test in all cases: inhibition of tumour cell growth, NCI panel, 48 h
# [1] = tested on: CCRF-CEM
# [2] = tested on: DMS-273
# [3] = tested on: SW-620
# [4] = tested on: EKVX
# [5] = tested on: HCT-15
# [6] = tested on: COLO 205
# [7] = tested on: SF-539
# [8] = tested on: K562
# [9] = tested on: HCT-116
# [10] = tested on: OVCAR-3
# [11] = tested on: HOP-18
# [12] = tested on: SF-268
# [13] = tested on: SK-MEL-5
# [14] = tested on: HOP-62
# [15] = tested on: HT-29
# [16] = tested on: M14
# [17] = tested on: NCI-H23
# [18] = tested on: SR
# [19] = tested on: SNB-78
# [20] = tested on: KM12
# [21] = tested on: RPMI-8226
# [22] = tested on: HL-60
# [23] = tested on: TK-10
# [24] = tested on: SNB-75
# [25] = tested on: U-251
# [26] = tested on: IGROV-1
# [27] = tested on: ACHN
# [28] = tested on: SNB-19
# [29] = tested on: Malme-3M
# [30] = tested on: SK-OV-3
# [31] = tested on: NCI-H460
# [32] = tested on: KM-20L2
# [33] = tested on: 786-0
# [34] = tested on: SF-295
# [35] = tested on: HOP-92
# [36] = tested on: SK-MEL-2
# [37] = tested on: UACC-62
# [38] = tested on: SN12C
# [39] = tested on: HCC 2998
# [40] = tested on: CAKI-1
# [41] = tested on: SK-MEL-28
# [42] = tested on: NCI-H522
# [43] = tested on: DLD-1
# [44] = tested on: M19-MEL
# [45] = tested on: OVCAR-5
# [46] = tested on: UO-31
# [47] = tested on: UACC-257
# [48] = tested on: OVCAR-8
# [49] = tested on: LOX IMVI
# [50] = tested on: LXFL 529
# [51] = tested on: A549
# [52] = tested on: A498
# [53] = tested on: RXF 393
# [54] = tested on: MOLT-4
# [55] = tested on: OVCAR-4
# [56] = tested on: NCI-H226
# [57] = tested on: DMS-114
structure (smiles),measurement,setting,value
O=C(O)CN1CCSc2ccccc2CN(CC(=O)O)CCSc2ccccc2C1,GI50,[1],> 100 µM (inactive)
same,GI50,[2],> 100 µM (inactive)
same,GI50,[3],> 100 µM (inactive)
same,GI50,[4],> 100 µM (inactive)
same,GI50,[5],> 100 µM
same,GI50,[6],> 100 µM (inactive)
same,GI50,[7],> 100 µM (inactive)
same,GI50,[8],> 100 µM (inactive)
same,GI50,[9],> 100 µM (inactive)
same,GI50,[10],> 100 µM (inactive)
same,GI50,[11],> 100 µM (inactive)
same,GI50,[12],> 100 µM (inactive)
same,GI50,[13],> 100 µM (inactive)
same,GI50,[14],> 100 µM (inactive)
same,GI50,[15],> 100 µM (inactive)
same,GI50,[16],> 100 µM (inactive)
same,GI50,[17],> 100 µM (inactive)
same,GI50,[18],4.61 µM (inactive)
same,GI50,[19],> 100 µM (inactive)
same,GI50,[20],> 100 µM (inactive)
same,GI50,[21],> 100 µM (inactive)
same,GI50,[22],> 100 µM (inactive)
same,GI50,[23],> 100 µM (inactive)
same,GI50,[24],> 100 µM (inactive)
same,GI50,[25],> 100 µM (inactive)
same,GI50,[26],> 100 µM (inactive)
same,GI50,[27],> 100 µM (inactive)
same,GI50,[28],> 100 µM (inactive)
same,GI50,[29],> 100 µM (inactive)
same,GI50,[30],> 100 µM (inactive)
same,GI50,[31],> 100 µM (inactive)
same,GI50,[32],> 100 µM (inactive)
same,GI50,[33],> 100 µM (inactive)
same,GI50,[34],> 100 µM (inactive)
same,GI50,[35],> 100 µM (inactive)
same,GI50,[36],> 100 µM (inactive)
same,GI50,[37],> 100 µM (inactive)
same,GI50,[38],> 100 µM (inactive)
same,GI50,[39],> 100 µM (inactive)
same,GI50,[40],> 100 µM (inactive)
same,GI50,[41],> 100 µM (inactive)
same,GI50,[42],> 100 µM (inactive)
same,GI50,[43],> 100 µM (inactive)
same,GI50,[44],> 100 µM (inactive)
same,GI50,[45],> 100 µM (inactive)
same,GI50,[46],> 100 µM (inactive)
same,GI50,[47],> 100 µM (inactive)
same,GI50,[48],> 100 µM (inactive)
same,GI50,[49],> 100 µM (inactive)
same,GI50,[50],> 100 µM (inactive)
same,GI50,[51],> 100 µM (inactive)
same,GI50,[52],> 100 µM (inactive)
COc1ccc(N2C(=O)[C@@H](N=[N+]=[N-])[C@@H]2[C@H]2COC(C)(C)O2)cc1,GI50,[1],> 100 µM (inactive)
same,GI50,[2],> 100 µM (inactive)
same,GI50,[3],> 100 µM (inactive)
same,GI50,[4],> 100 µM (inactive)
same,GI50,[5],> 100 µM
same,GI50,[6],> 100 µM (inactive)
same,GI50,[53],> 100 µM (inactive)
same,GI50,[7],> 100 µM (inactive)
same,GI50,[54],> 100 µM (inactive)
same,GI50,[8],> 100 µM (inactive)
same,GI50,[9],> 100 µM (inactive)
same,GI50,[10],> 100 µM (inactive)
same,GI50,[11],> 100 µM (inactive)
same,GI50,[12],> 100 µM (inactive)
same,GI50,[13],> 100 µM (inactive)
same,GI50,[14],> 100 µM (inactive)
same,GI50,[15],> 100 µM (inactive)
same,GI50,[16],> 100 µM (inactive)
same,GI50,[17],> 100 µM (inactive)
same,GI50,[18],> 100 µM (inactive)
same,GI50,[55],> 100 µM (inactive)
same,GI50,[19],> 100 µM (inactive)
same,GI50,[20],> 100 µM (inactive)
same,GI50,[21],> 100 µM (inactive)
same,GI50,[22],> 100 µM (inactive)
same,GI50,[24],> 100 µM (inactive)
same,GI50,[25],> 100 µM (inactive)
same,GI50,[56],> 100 µM (inactive)
same,GI50,[26],> 100 µM (inactive)
same,GI50,[27],> 100 µM (inactive)
same,GI50,[28],> 100 µM (inactive)
same,GI50,[29],> 100 µM (inactive)
same,GI50,[30],> 100 µM (inactive)
same,GI50,[31],> 100 µM (inactive)
same,GI50,[32],> 100 µM (inactive)
same,GI50,[33],> 100 µM (inactive)
same,GI50,[34],> 100 µM (inactive)
same,GI50,[35],> 100 µM (inactive)
same,GI50,[36],> 100 µM (inactive)
same,GI50,[37],75 µM (inactive)
same,GI50,[38],> 100 µM (inactive)
same,GI50,[39],> 100 µM (inactive)
same,GI50,[40],> 100 µM (inactive)
same,GI50,[41],> 100 µM (inactive)
same,GI50,[42],> 100 µM (inactive)
same,GI50,[44],> 100 µM (inactive)
same,GI50,[45],> 100 µM (inactive)
same,GI50,[57],> 100 µM (inactive)
same,GI50,[46],> 100 µM (inactive)
same,GI50,[47],> 100 µM (inactive)
same,GI50,[48],> 100 µM (inactive)
same,GI50,[50],> 100 µM (inactive)
same,GI50,[51],> 100 µM (inactive)
